Results reported in patent US20230263822A1, “MODULATION OF FACTOR 11 EXPRESSION” (Ionis Pharmaceuticals, Inc., priority 2008, published 2023).

Test: Hematology assays in cynomolgus monkeys (Example 45)
Assay type: in vivo
Conditions: for MCH / MCHC / MCV / RBC count / WBC count / hematocrit / hemoglobin: escalating dose regimen
Experimental: Groups, each consisting of two male and three female monkeys, were injected subcutaneously with ISIS 416838, ISIS 416850, ISIS 416858, ISIS 416864, or ISIS 417002 in escalating doses. Antisense oligonucleotide was administered to the monkeys at 5 mg/kg three times per a week for week 1; 5 mg/kg twice per week for weeks 2 and 3; 10 mg/kg three times per week for week 4; 10 mg/kg twice per week for weeks 5 and 6; 25 mg/kg three times per week for week 7; and 25 mg/kg twice per week for weeks 8, 9, 10, 11, and 12. One control group, consisting of two male and three female monkeys, was injected subcutaneously with PBS according to the same dosing regimen. An additional experimental group, consisting of two male and three female monkeys, was injected subcutaneously with ISIS 416850 in a chronic, lower dose regimen. Antisense oligonucleotide was administered to the monkeys at 5 mg/kg three times per week for week 1; 5 mg/kg twice per week for week 2 and 3; 10 mg/kg three times per week for week 4; and 10 mg/kg twice per week for weeks 5 to 12. Body weights were measured weekly. Blood samples were collected 14 days and 5 days before the start of treatment and subsequently once per week for Factor 11 protein activity analysis in plasma, fibrinogen measurement, PT and aPTT measurements, bleeding times, and measurement of various hematologic factors. On day 85, the monkeys were euthanized by exsanguination while under deep anesthesia, and organs harvested for further analysis.
The ISIS oligonucleotide, ISIS 416850, given with the chronic dose regimen is distinguished from the other oligonucleotides with an asterisk (*).

ISIS 416858: MOE gapmer, nucleobases 1275 to 1318 of SEQ ID NO: 1 (Table 8) (antisense ACGGCATTGGTGCACAGTTT; MOE gapmer, wing and gap sizes not given here)
MCH (Day 64): 22 pg
MCH (Day 71): 22 pg
MCH (Day 78): 23 pg
MCH (Day 85): 22 pg
basophils (day 8): 0.3%
eosinophils (day 8): 0.3%
lymphocytes (day 8): 45%
monocytes (day 8): 2.7%
neutrophils (day 8): 51%
platelet count (day 8): 391000 µL⁻¹
reticulocytes (day 8): 1.2%
MCH (day 8): 23 pg
MCHC (day 8): 30 g/dL
MCV (day 8): 77 fL
RBC count (day 8): 5.6e+06 µL⁻¹
WBC count (day 8): 12000 µL⁻¹
hematocrit (day 8): 43%
hemoglobin (day 8): 12.8 g/dL
basophils (day 15): 0.2%
eosinophils (day 15): 0.3%
lymphocytes (day 15): 43%
monocytes (day 15): 2.2%
neutrophils (day 15): 54%
platelet count (day 15): 400000 µL⁻¹
reticulocytes (day 15): 1.6%
MCH (day 15): 23 pg
MCHC (day 15): 31 g/dL
MCV (day 15): 74 fL
RBC count (day 15): 5.4e+06 µL⁻¹
WBC count (day 15): 11000 µL⁻¹
hematocrit (day 15): 40%
hemoglobin (day 15): 12.6 g/dL
basophils (day 22): 0.2%
eosinophils (day 22): 0.6%
lymphocytes (day 22): 49%
monocytes (day 22): 2.8%
neutrophils (day 22): 47%
platelet count (day 22): 316000 µL⁻¹
reticulocytes (day 22): 1.3%
MCH (day 22): 24 pg
MCHC (day 22): 30 g/dL
MCV (day 22): 77 fL
RBC count (day 22): 5.3e+06 µL⁻¹
WBC count (day 22): 11000 µL⁻¹
hematocrit (day 22): 41%
hemoglobin (day 22): 12.4 g/dL
basophils (day 29): 0.2%
eosinophils (day 29): 0.6%
lymphocytes (day 29): 51%
monocytes (day 29): 3.8%
neutrophils (day 29): 43%
platelet count (day 29): 336000 µL⁻¹
reticulocytes (day 29): 1.5%
MCH (day 29): 23 pg
MCHC (day 29): 30 g/dL
MCV (day 29): 78 fL
RBC count (day 29): 5.3e+06 µL⁻¹
WBC count (day 29): 12000 µL⁻¹
hematocrit (day 29): 41%
hemoglobin (day 29): 12.3 g/dL
basophils (day 36): 0.3%
eosinophils (day 36): 0.4%
lymphocytes (day 36): 49%
monocytes (day 36): 2.9%
neutrophils (day 36): 47%
platelet count (day 36): 371000 µL⁻¹
reticulocytes (day 36): 1.6%
MCH (day 36): 23 pg
MCHC (day 36): 31 g/dL
MCV (day 36): 75 fL
RBC count (day 36): 5.5e+06 µL⁻¹
WBC count (day 36): 12000 µL⁻¹
hematocrit (day 36): 40%
hemoglobin (day 36): 12.6 g/dL
basophils (day 43): 0.3%
eosinophils (day 43): 0.3%
lymphocytes (day 43): 51%
monocytes (day 43): 3.1%
neutrophils (day 43): 45%
platelet count (day 43): 342000 µL⁻¹
reticulocytes (day 43): 1.3%
MCH (day 43): 23 pg
MCHC (day 43): 31 g/dL
MCV (day 43): 74 fL
RBC count (day 43): 5.5e+06 µL⁻¹
WBC count (day 43): 11000 µL⁻¹
hematocrit (day 43): 40%
hemoglobin (day 43): 12.4 g/dL
basophils (day 50): 0.4%
eosinophils (day 50): 0.4%
lymphocytes (day 50): 48%
monocytes (day 50): 4.6%
neutrophils (day 50): 46%
platelet count (day 50): 331000 µL⁻¹
reticulocytes (day 50): 1.5%
MCH (day 50): 23 pg
MCHC (day 50): 30 g/dL
MCV (day 50): 76 fL
RBC count (day 50): 5.5e+06 µL⁻¹
WBC count (day 50): 13000 µL⁻¹
hematocrit (day 50): 41%
hemoglobin (day 50): 12.2 g/dL
basophils (day 57): 0.2%
eosinophils (day 57): 0.3%
lymphocytes (day 57): 51%
monocytes (day 57): 3.8%
neutrophils (day 57): 44%
platelet count (day 57): 333000 µL⁻¹
reticulocytes (day 57): 1.4%
MCH (day 57): 22 pg
MCHC (day 57): 31 g/dL
MCV (day 57): 74 fL
RBC count (day 57): 5.6e+06 µL⁻¹
WBC count (day 57): 13000 µL⁻¹
hematocrit (day 57): 41%
hemoglobin (day 57): 12.7 g/dL
basophils (day 64): 0.4%
eosinophils (day 64): 0.4%
lymphocytes (day 64): 56%
monocytes (day 64): 4.4%
neutrophils (day 64): 37%
platelet count (day 64): 295000 µL⁻¹
reticulocytes (day 64): 1.0%
MCHC (day 64): 30 g/dL
MCV (day 64): 73 fL
RBC count (day 64): 5.7e+06 µL⁻¹
WBC count (day 64): 12000 µL⁻¹
hematocrit (day 64): 42%
hemoglobin (day 64): 12.8 g/dL
basophils (day 71): 0.4%
eosinophils (day 71): 0.9%
lymphocytes (day 71): 66%
monocytes (day 71): 4.9%
neutrophils (day 71): 26%
platelet count (day 71): 286000 µL⁻¹
reticulocytes (day 71): 1.3%
MCHC (day 71): 30 g/dL
MCV (day 71): 75 fL
RBC count (day 71): 5.6e+06 µL⁻¹
WBC count (day 71): 13000 µL⁻¹
hematocrit (day 71): 42%
hemoglobin (day 71): 12.7 g/dL
basophils (day 78): 0.4%
eosinophils (day 78): 0.5%
lymphocytes (day 78): 54%
monocytes (day 78): 4.9%
neutrophils (day 78): 39%
platelet count (day 78): 262000 µL⁻¹
reticulocytes (day 78): 1.2%
MCHC (day 78): 32 g/dL
MCV (day 78): 72 fL
RBC count (day 78): 5.4e+06 µL⁻¹
WBC count (day 78): 11000 µL⁻¹
hematocrit (day 78): 39%
hemoglobin (day 78): 12.4 g/dL
basophils (day 85): 0.3%
eosinophils (day 85): 0.6%
lymphocytes (day 85): 52%
monocytes (day 85): 6.1%
neutrophils (day 85): 40%
platelet count (day 85): 267000 µL⁻¹
reticulocytes (day 85): 1.3%
MCHC (day 85): 31 g/dL
MCV (day 85): 72 fL
RBC count (day 85): 5.5e+06 µL⁻¹
WBC count (day 85): 11000 µL⁻¹
hematocrit (day 85): 39%
hemoglobin (day 85): 11.9 g/dL
basophils (day −5): 0.3%
eosinophils (day −5): 1.3%
lymphocytes (day −5): 49%
monocytes (day −5): 2.8%
neutrophils (day −5): 46%
platelet count (day −5): 463000 µL⁻¹
reticulocytes (day −5): 0.9%
MCH (day −5): 23 pg
MCHC (day −5): 31 g/dL
MCV (day −5): 75 fL
RBC count (day −5): 5.6e+06 µL⁻¹
WBC count (day −5): 14000 µL⁻¹
hematocrit (day −5): 42%
hemoglobin (day −5): 13.2 g/dL
basophils (day −14): 0.3%
eosinophils (day −14): 0.7%
lymphocytes (day −14): 58%
monocytes (day −14): 2.8%
neutrophils (day −14): 37%
platelet count (day −14): 419000 µL⁻¹
reticulocytes (day −14): 1.0%
MCH (day −14): 24 pg
MCHC (day −14): 31 g/dL
MCV (day −14): 77 fL
RBC count (day −14): 5.6e+06 µL⁻¹
WBC count (day −14): 14000 µL⁻¹
hematocrit (day −14): 43%
hemoglobin (day −14): 13.2 g/dL
